Here are results for 14 molecules from PubChem BioAssay (NCI).

Some test systems named below: HCC-2998 colon; SNB-19 CNS; TK-10 renal; SF-539 CNS; RPMI-8226 leukemia; UACC-257 melanoma; MOLT-4 leukemia; RXF 393 renal; M14 melanoma; IGROV1 ovarian.
What all share (experiment): NCI tumour cell line growth inhibition, 48 h

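48-hour exposure; five concentrations; linearly interpolated endpoints. At the GI50, growth is halved. TGI marks complete inhibition of growth.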

For `COc1ccc(/C=C/C(=O)N[C@@H]2C(=O)N3[C@@H]2SC(C)(C)[C@@H]3C(=O)O)cc1OC`, the TGI with HCC-2998 colon, in the test with SNB-19 CNS, in the test on TK-10 renal, in the test on SF-539 CNS, in the test with RPMI-8226 leukemia and in the test with UACC-257 melanoma was greater than 100 µM in each case. For the same molecule, the TGI in the test with MOLT-4 leukemia, in the test with RXF 393 renal and with M14 melanoma was greater than 100 µM throughout.

In the case of `CN(C)CCNc1nc2c(c(=O)n(C)c(=O)n2C)n1C`, the TGI in the test with SNB-19 CNS, in the test on TK-10 renal, in the test on SF-539 CNS, with RPMI-8226 leukemia, in the test with UACC-257 melanoma and in the test on MOLT-4 leukemia was greater than 100 µM throughout. Moreover, the TGI in the test with RXF 393 renal, in the test with IGROV1 ovarian and with M14 melanoma was greater than 100 µM each time.

As to `COc1ccc(-c2cc(-c3ccncc3)nc(N)c2-c2ccc(F)cc2)cc1`, the TGI in the test with SNB-19 CNS was greater than 100 µM; in the test on TK-10 renal it was greater than 100 µM; in the test with SF-539 CNS, 46.8 µM; in the test on RPMI-8226 leukemia, greater than 100 µM; with UACC-257 melanoma, greater than 100 µM; with MOLT-4 leukemia it was greater than 100 µM. Moreover, the TGI in the test with RXF 393 renal is 68.6 µM; in the test with IGROV1 ovarian, greater than 100 µM; with M14 melanoma it was greater than 100 µM.

Turning to `O=C(O)COc1cccc2ccccc(=O)c12`, the TGI in the test with HCC-2998 colon, in the test with SNB-19 CNS, with TK-10 renal, with SF-539 CNS, in the test with UACC-257 melanoma and in the test on MOLT-4 leukemia was greater than 100 µM each time. Further, the TGI with RXF 393 renal, in the test with IGROV1 ovarian and in the test on M14 melanoma was greater than 100 µM each time.

On to `CSc1c(C#N)c(=O)n(N)c2n[nH]c(C)c12`, for which the TGI with HCC-2998 colon, in the test on SNB-19 CNS, in the test with TK-10 renal, in the test on SF-539 CNS, in the test with RPMI-8226 leukemia and in the test on UACC-257 melanoma was greater than 100 µM each time. Further, the TGI in the test with MOLT-4 leukemia and in the test with RXF 393 renal was greater than 100 µM each time.

As for `COc1cc(/C=C2\CCCC3=C2N=C2SC=NN2C3c2cc(OC)c(OC)c(OC)c2)cc(OC)c1OC` (centres undefined), the GI50 with SNB-19 CNS was 4.44 µM; in the test with TK-10 renal, 4.19 µM; in the test on SF-539 CNS, 2.9 µM; in the test on UACC-257 melanoma, 2.64 µM; with MOLT-4 leukemia, 3.06 µM; with RXF 393 renal, 2.2 µM. In the test with M14 melanoma, the GI50 was 2.4 µM. Further, the TGI was greater than 100 µM in the test on SNB-19 CNS; 47.6 µM with TK-10 renal; greater than 100 µM in the test on SF-539 CNS; 26.1 µM with UACC-257 melanoma; 4.74 µM in the test on RXF 393 renal; 7.1 µM in the test with M14 melanoma.

With `CC(C)N=C(NC#N)NS(=O)(=O)c1cnccc1NC1CCCCCCC1`, the TGI with HCC-2998 colon, in the test on SNB-19 CNS, with TK-10 renal, with RPMI-8226 leukemia, in the test on UACC-257 melanoma and with MOLT-4 leukemia was greater than 100 µM in each case. The TGI in the test with RXF 393 renal, in the test on IGROV1 ovarian and with M14 melanoma was greater than 100 µM throughout.

In the case of `NC(=O)NC(=O)c1cccc(C(=O)NC(N)=O)n1`, the TGI in the test with HCC-2998 colon, in the test with SNB-19 CNS, in the test with TK-10 renal, in the test on SF-539 CNS, with RPMI-8226 leukemia and in the test with UACC-257 melanoma was greater than 100 µM each time. The TGI in the test on MOLT-4 leukemia, with RXF 393 renal and with M14 melanoma was greater than 100 µM in each case.

`COC(=O)CC(c1ccccc1)C(C#N)(OP1(=O)OC(c2ccccc2)C(C)N1C)c1ccccc1` (centres undefined): the TGI with HCC-2998 colon is greater than 100 µM; in the test with SNB-19 CNS, greater than 100 µM; with TK-10 renal, greater than 100 µM; in the test with RPMI-8226 leukemia, greater than 100 µM; in the test on UACC-257 melanoma, greater than 100 µM; with MOLT-4 leukemia, 64.6 µM. The TGI with RXF 393 renal, with IGROV1 ovarian and in the test on M14 melanoma was greater than 100 µM in each case.

Consider `Cc1cccc(C)c1NC(=O)/C(CC(=O)CC(c1ccccc1)c1c(O)c2ccccc2oc1=O)=N/O` (centres undefined), for which the TGI with HCC-2998 colon, with SNB-19 CNS, in the test with TK-10 renal, in the test on SF-539 CNS, in the test with UACC-257 melanoma and in the test with MOLT-4 leukemia was greater than 100 µM in each case. In addition, the TGI in the test with RXF 393 renal, in the test on IGROV1 ovarian and in the test on M14 melanoma was greater than 100 µM throughout.

Consider `CCN(CC)C(=O)N1CN(c2ccccc2)C2(CCN(CCCC3(c4ccc(F)cc4)OCCO3)CC2)C1=O`, for which the TGI with HCC-2998 colon turned out to be 28.7 µM; in the test with SNB-19 CNS, 89.7 µM; in the test with TK-10 renal, 38.7 µM; in the test on SF-539 CNS it was 32 µM; with RPMI-8226 leukemia, 30.1 µM; in the test on UACC-257 melanoma, 26.3 µM. Further, the values for the TGI in the test on MOLT-4 leukemia, with RXF 393 renal and in the test with M14 melanoma were 34.9 µM, 27.8 µM and greater than 100 µM, respectively.

As to `O=c1ccc2c(Cl)sc(Cl)c2[nH]1`, the TGI with HCC-2998 colon, in the test on SNB-19 CNS, in the test with TK-10 renal, in the test with RPMI-8226 leukemia, in the test on UACC-257 melanoma and in the test with MOLT-4 leukemia was greater than 100 µM each time. For the same molecule, the TGI in the test on RXF 393 renal, with IGROV1 ovarian and in the test with M14 melanoma was greater than 100 µM in each case.

Consider `COC1=C2C[C@](OC)(C#CC=CC#CC2O)CC1(C)C` (some centres undefined), for which the TGI with HCC-2998 colon, in the test with SNB-19 CNS, in the test with TK-10 renal, with SF-539 CNS, in the test with RPMI-8226 leukemia and in the test on UACC-257 melanoma was greater than 100 µM in each case. In addition, the TGI is greater than 100 µM in the test on MOLT-4 leukemia, greater than 100 µM in the test on RXF 393 renal and 63.2 µM with IGROV1 ovarian.

`Cc1c(OCc2cccc3ccccc23)ccc2c(=O)cc(S)oc12`: the TGI in the test with HCC-2998 colon was greater than 100 µM; in the test on SNB-19 CNS, greater than 100 µM; in the test with TK-10 renal, greater than 100 µM; with SF-539 CNS it was 65.2 µM; with UACC-257 melanoma it was greater than 100 µM; in the test with MOLT-4 leukemia, greater than 100 µM. In addition, the TGI in the test with RXF 393 renal, with IGROV1 ovarian and with M14 melanoma was greater than 100 µM throughout.
